# Reference: the supplement of paper PMC12698765
# Where a name gives a salt, the structure may show the parent alone. ± gives the standard deviation of the averaged measurements.
# Legend:
# [1] = test system: 409B2 hiPSC (iCRISPR Cas9, FRMD7 editing); test: MMEJ-attributed deletion frequency relative to solvent control (fold (ratio to mock)); higher = more MMEJ outcomes
# Protocol: (§1)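 Subset screen of 55 drugs tested at 5 concentrations around the effective screening dose, in 409B2 iCRISPR Cas9 hiPSCs editing FRMD7 with a ssDNA donor. Drugs were applied for 24 h. Viability was read by resazurin and editing outcomes by amplicon sequencing (HDR, NHEJ <2 bp microhomology, MMEJ ≥2 bp microhomology). Values are relative to solvent mock controls; two biological replicates.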
# [2] = test system: 409B2 hiPSC (iCRISPR Cas9, FRMD7 editing); test: cell survival relative to solvent control (fold (ratio to mock)); higher = more surviving cells
# Protocol: as §1
# [3] = test system: 409B2 hiPSC (iCRISPR Cas9, FRMD7 editing); test: HDR (precise edit) frequency relative to solvent control (fold (ratio to mock)); higher = more homology-directed repair outcomes
# Protocol: as §1
# [4] = test system: 409B2 hiPSC (iCRISPR Cas9, FRMD7 editing); test: NHEJ-attributed indel frequency relative to solvent control (fold (ratio to mock)); higher = more NHEJ outcomes
# Protocol: as §1
smiles,measurement,setting,value
CC(CCc1ccccc1)NCC(O)c1ccc(O)c(C(N)=O)c1 (stereo not given) [Labetalol HCl] (in DMSO),MMEJ-attributed deletion frequency,[1]; 2000 nM,1.04 ± 0.027
same,MMEJ-attributed deletion frequency,[1]; 5000 nM,0.975 ± 0.13
same,MMEJ-attributed deletion frequency,[1]; 10000 nM,1.13 ± 0.15
same,MMEJ-attributed deletion frequency,[1]; 20000 nM,1.08 ± 0.034
same,MMEJ-attributed deletion frequency,[1]; 50000 nM,1.25 ± 0.049
same,cell survival,[2]; 2000 nM,0.953
same,cell survival,[2]; 5000 nM,1.39
same,cell survival,[2]; 10000 nM,1.08
same,cell survival,[2]; 20000 nM,1.14
same,cell survival,[2]; 50000 nM,1.15
same,HDR,[3]; 2000 nM,1.05 ± 0.063
same,HDR,[3]; 5000 nM,0.878 ± 0.059
same,HDR,[3]; 10000 nM,0.834 ± 0.025
same,HDR,[3]; 20000 nM,0.757 ± 0.049
same,HDR,[3]; 50000 nM,0.756 ± 0.028
same,NHEJ-attributed indel frequency,[4]; 2000 nM,0.988 ± 0.029
same,NHEJ-attributed indel frequency,[4]; 5000 nM,1.02 ± 0.0051
same,NHEJ-attributed indel frequency,[4]; 10000 nM,1.05 ± 0.018
same,NHEJ-attributed indel frequency,[4]; 20000 nM,1.093 ± 0.0077
same,NHEJ-attributed indel frequency,[4]; 50000 nM,1.0876 ± 0.00036
CC[C@]1(O)C[C@@H]2CN(CCc3c([nH]c4ccccc34)[C@@](C(=O)OC)(c3cc4c(cc3OC)N(C)[C@H]3[C@@](O)(C(=O)OC)[C@H](OC(C)=O)[C@]5(CC)C=CCN6CC[C@]43[C@@H]65)C2)C1 [Vinblastine sulfate] (in DMSO),MMEJ-attributed deletion frequency,[1]; 2 nM,1.11 ± 0.049
same,MMEJ-attributed deletion frequency,[1]; 5 nM,1.08 ± 0.057
same,MMEJ-attributed deletion frequency,[1]; 10 nM,1.13 ± 0.55
same,MMEJ-attributed deletion frequency,[1]; 20 nM,0.779 ± 0.3
same,MMEJ-attributed deletion frequency,[1]; 50 nM,0.6333 ± 0.0063
same,cell survival,[2]; 2 nM,0.687
same,cell survival,[2]; 5 nM,0.117
same,cell survival,[2]; 10 nM,0.0623
same,cell survival,[2]; 20 nM,0.00294
same,cell survival,[2]; 50 nM,0.00452
same,HDR,[3]; 2 nM,1.08 ± 0.098
same,HDR,[3]; 5 nM,0.737 ± 0.042
same,HDR,[3]; 10 nM,0.633 ± 0.4
same,HDR,[3]; 20 nM,0.511 ± 0.28
same,HDR,[3]; 50 nM,0.302 ± 0.056
same,NHEJ-attributed indel frequency,[4]; 2 nM,1.04 ± 0.018
same,NHEJ-attributed indel frequency,[4]; 5 nM,0.958 ± 0.12
same,NHEJ-attributed indel frequency,[4]; 10 nM,0.792 ± 0.39
same,NHEJ-attributed indel frequency,[4]; 20 nM,0.606 ± 0.21
same,NHEJ-attributed indel frequency,[4]; 50 nM,0.498 ± 0.064
O=[N+]([O-])O[C@@H]1CO[C@H]2[C@@H]1OC[C@@H]2O [Isosorbide 5-mononitrate] (in DMSO),MMEJ-attributed deletion frequency,[1]; 2000 nM,0.904 ± 0.25
same,MMEJ-attributed deletion frequency,[1]; 5000 nM,0.993 ± 0.058
same,MMEJ-attributed deletion frequency,[1]; 10000 nM,0.983 ± 0.057
same,MMEJ-attributed deletion frequency,[1]; 20000 nM,0.994 ± 0.012
same,MMEJ-attributed deletion frequency,[1]; 50000 nM,0.955 ± 0.048
same,cell survival,[2]; 2000 nM,0.898
same,cell survival,[2]; 5000 nM,1.39
same,cell survival,[2]; 10000 nM,1.19
same,cell survival,[2]; 20000 nM,1.15
same,cell survival,[2]; 50000 nM,1.36
same,HDR,[3]; 2000 nM,1.08 ± 0.25
same,HDR,[3]; 5000 nM,1.14 ± 0.04
same,HDR,[3]; 10000 nM,1.14 ± 0.051
same,HDR,[3]; 20000 nM,1.07 ± 0.14
same,HDR,[3]; 50000 nM,1.22 ± 0.11
same,NHEJ-attributed indel frequency,[4]; 2000 nM,0.899 ± 0.036
same,NHEJ-attributed indel frequency,[4]; 5000 nM,0.9787 ± 0.0053
same,NHEJ-attributed indel frequency,[4]; 10000 nM,0.967 ± 0.016
same,NHEJ-attributed indel frequency,[4]; 20000 nM,0.988 ± 0.033
same,NHEJ-attributed indel frequency,[4]; 50000 nM,0.983 ± 0.013
CNCc1ccc(-c2[nH]c3cc(F)cc4c3c2CCNC4=O)cc1 [Rucaparib (free base)] (in DMSO),MMEJ-attributed deletion frequency,[1]; 20 nM,1.04 ± 0.017
same,MMEJ-attributed deletion frequency,[1]; 50 nM,0.892 ± 0.2
same,MMEJ-attributed deletion frequency,[1]; 100 nM,0.93 ± 0.079
same,MMEJ-attributed deletion frequency,[1]; 200 nM,0.869 ± 0.16
same,MMEJ-attributed deletion frequency,[1]; 500 nM,0.918 ± 0.076
same,cell survival,[2]; 20 nM,0.789
same,cell survival,[2]; 50 nM,0.744
same,cell survival,[2]; 100 nM,0.541
same,cell survival,[2]; 200 nM,0.487
same,cell survival,[2]; 500 nM,0.291
same,HDR,[3]; 20 nM,1.13 ± 0.035
same,HDR,[3]; 50 nM,1.302 ± 0.0046
same,HDR,[3]; 100 nM,1.31 ± 0.071
same,HDR,[3]; 200 nM,1.32 ± 0.17
same,HDR,[3]; 500 nM,1.26 ± 0.037
same,NHEJ-attributed indel frequency,[4]; 20 nM,0.952 ± 0.015
same,NHEJ-attributed indel frequency,[4]; 50 nM,0.924 ± 0.013
same,NHEJ-attributed indel frequency,[4]; 100 nM,0.876 ± 0.034
same,NHEJ-attributed indel frequency,[4]; 200 nM,0.853 ± 0.045
same,NHEJ-attributed indel frequency,[4]; 500 nM,0.787 ± 0.054
Oc1cccc(O)c1 [Resorcinol] (in DMSO),MMEJ-attributed deletion frequency,[1]; 200 nM,0.916 ± 0.095
same,MMEJ-attributed deletion frequency,[1]; 500 nM,0.884 ± 0.054
same,MMEJ-attributed deletion frequency,[1]; 1000 nM,0.824 ± 0.045
same,MMEJ-attributed deletion frequency,[1]; 2000 nM,0.934 ± 0.13
same,MMEJ-attributed deletion frequency,[1]; 5000 nM,0.922 ± 0.16
same,cell survival,[2]; 200 nM,1.15
same,cell survival,[2]; 500 nM,1.17
same,cell survival,[2]; 1000 nM,0.955
same,cell survival,[2]; 2000 nM,1.03
same,cell survival,[2]; 5000 nM,1.12
same,HDR,[3]; 200 nM,1.07 ± 0.072
same,HDR,[3]; 500 nM,1.08 ± 0.038
same,HDR,[3]; 1000 nM,1.11 ± 0.026
same,HDR,[3]; 2000 nM,1.07 ± 0.021
same,HDR,[3]; 5000 nM,1.06 ± 0.073
same,NHEJ-attributed indel frequency,[4]; 200 nM,0.988 ± 0.024
same,NHEJ-attributed indel frequency,[4]; 500 nM,0.995 ± 0.0014
same,NHEJ-attributed indel frequency,[4]; 1000 nM,1 ± 0.043
same,NHEJ-attributed indel frequency,[4]; 2000 nM,0.999 ± 0.033
same,NHEJ-attributed indel frequency,[4]; 5000 nM,0.99 ± 0.043
